One assay relates to M^pro. To be noted: read-out: Activity: IC50; cited from earlier work.
Another assay concerns SARS-CoV-2. To be noted: cited from earlier work.
A further assay concerns wild type SARS-CoV-2. Kind of assay: microbe, parasite or virus in culture. The assay is classed as cell-based. The conditions noted are these: mean ± sd.

By IC50 is commonly meant the point on the concentration scale where inhibition reaches its midpoint. As usually defined, the EC50 is the concentration needed to bring the measured effect to its halfway point.

Regarding `CC(C)(C)NC(=O)[C@@H](c1cccnc1)N(C(=O)c1ccco1)c1ccc(C(C)(C)C)cc1` [0EN], in the assay on M^pro, the IC50 was 4800 nM.

Take `Cc1cc(S(=O)(=O)c2c([N+](=O)[O-])cc(C(F)(F)F)cc2[N+](=O)[O-])c(Cl)cc1Cl` [D3F]: the IC50 with M^pro was 300 nM.

Regarding `CC(C)(C)[C@H](NC(=O)C(F)(F)F)C(=O)N1C[C@H]2[C@@H]([C@H]1C(=O)N[C@H](C#N)C[C@@H]1CCNC1=O)C2(C)C` [nirmatrelvir], the “decrease of the probability of hospitalization or mortality” value in the assay with SARS-CoV-2 (EPIC-HR, non-hospitalized adults at high risk) is listed as 89%. The “rate of hospitalization owing to COVID-19 among treated patients” value in the assay with SARS-CoV-2 (patients aged 40 to 64 years, Israel, omicron, untreated 15.8) is 15.2 instances per 100,000 person-days.

Regarding `O=C(Sc1n[nH]c(C(F)(F)F)n1)c1ccc(C#Cc2ccccc2)o1` [F3F], the 50% inhibitory concentration (IC50) with M^pro was 3000 nM.

Consider `CCOC(=O)CC[C@H](C[C@@H]1CCNC1=O)NC(=O)[C@H](CC=C(C)C)CC(=O)[C@@H](NC(=O)[C@H](CO)NC(=O)OC(C)(C)C)C(C)C` [CYV], for which the IC50 in the assay on M^pro was 80000 nM.

Consider `CC(C)C(=O)OC[C@H]1O[C@@H](n2ccc(NO)nc2=O)[C@H](O)[C@@H]1O` [molnupiravir], for which the “decrease of the risk of hospitalization or death” value in the assay with SARS-CoV-2 (MOVe-OUT, non-hospitalized patients) is 48%.

Consider `CCC(CC)COC(=O)[C@H](C)N[P@](=O)(OC[C@H]1O[C@@](C#N)(c2ccc3c(N)ncnn23)[C@H](O)[C@@H]1O)Oc1ccccc1` [Remdesivir], for which, in the assay with SARS-CoV-2 (hospitalized adults), the “reduction of recovery time” value is given as 5 days. Further, the EC50 in the assay with wild type SARS-CoV-2 (Severe acute respiratory syndrome coronavirus 2, Vero C1008, Vero E6 cells) is 1010 ± 130 nM; in the assay on wild type SARS-CoV-2 (Severe acute respiratory syndrome coronavirus 2, Calu-3 cells) it was 1110 ± 170 nM.

Source of the values: paper PMC10123561 (Signal Transduction and Targeted Therapy, 2023).
